Reference: US9125406B2, “Methods and compositions for control of cabbage looper, trichoplusia ni” (Simon Fraser University, priority 2008, dated 2015)

Tests used:
Trichoplusia ni larva = assay: Leaf-disc choice bioassay on cabbage: dose-response and blend assay (Example 12); format: in vivo
Experimental: T. ni larvae were raised from eggs (Insect Production Services, Natural Resources Canada) on a wheat-germ based artificial diet (McMorran diet, Insect Production Services, Natural Resources Canada), or raised from eggs from a laboratory colony of T. ni adults, at 22±1° C., 32-40% humidity, 9 h/15 h light/dark photoperiod.
Cabbage (Brassica oleracea L. cv. Golden Acre) plants were grown from seed (Pacific Northwest Seeds, Vernon, B.C.) in sandy loam soil in the laboratory at 21±1° C. beside a south-facing window. Plants received supplemental lighting from grow-lights emitting light of wavelengths 430 and 662 nm for 2 h/d. Plants were about 2-3 months old (with about 8-12 fully expanded leaves) at time of leaf collection for disc choice bioassays.
3c{3,6} was synthesized as described herein. Azadirachtin in a neem oil preparation (TreeAzin [5% azadirachtins A and B]) was obtained from BioForest Technologies Inc., Sault Step. Marie, Canada. Azadirachtin solutions were prepared fresh on the day of the bioassay to avoid degradation. Cetyl alcohol was obtained from Sigma, palmitic acid from BDH Chemicals Ltd., methanol (HPLC-grade) from Calcdon, and isopropanol (2-propanol-205, distilled in glass) from Calcdon Ammonium hydroxide solution was obtained from CanLab.
Blend and whole plant studies used a “vehicle” that consisted of palmitic acid (25 mM), cetyl alcohol (25 mM), and isopropanol (50%). The vehicle was prepared by dissolving palmitic acid and cetyl alcohol in isopropanol. The solution was neutralized with 1M NaOH, followed by step-wise dilution with water.
Leaf discs (disc area: 2.24 cm^2) cut with a no. 10 borer from cabbage plant leaves were painted on each side with 20 μL of treatment solution or solvent, using a Hamilton 25 μL glass syringe, and allowed to dry. One treatment and one control leaf disc were placed on opposite sides (5 cm apart) of a 9 cm diameter Petri dish containing moistened filter paper (Whatman #1, 70 mm). A fasting Trichoplusia ni larva was placed midway between the two leaf discs and oriented away from either disc. Replicate Petri dishes were kept in a plastic basin, protected from light, at 22±1° C. during the feeding period. Larvae fasted for approximately 7 h prior to the experiments. […]
Leaf disc areas consumed were measured using a Canon CanoS can LiDE 20 scanner, CanoScan Toolbox 4.1 software, Microsoft Office Picture Manager, and Un-Scan-It Gel and Graph Digitizing Software v. […]
In the dose-response study leaf-disc choice bioassays were performed with larvae in day 1 or 2 of the 3rd and 4th instar. […] There were not enough data points in the dose-response data for a sigmoidal fit, but the DC50 could be determined by linear regression analysis, as was the case for Akhtar et al. (2007). […]

T. ni moths = assay: Oviposition choice (deterrence) bioassay on cabbage leaves; format: in vivo, Trichoplusia ni; details: Trichoplusia, 48 h, Table 8; at 0.25%; read-out: OD (%) Mean ± SE N = 35-40
[1] = test system: third instar T. ni larvae; assay: Leaf disk choice feeding deterrence bioassay; format: in vivo, Trichoplusia ni
Description: Cabbage plants (Brassica oleraceae var. Stonehead) used in the bioassays were routinely grown in plastic pots with a mixture of sandy loam soil and peat moss (4:1) in a greenhouse at the University of British Columbia, Vancouver, BC, Canada. Leaves were collected from cabbage plants that were 5-6 weeks old.
T. ni larvae and moths were obtained from a long established colony (>50 generations) maintained on an artificial diet, Velvetbean Caterpillar Diet No. F9796 [Bio-Sery Inc. (Frenchtown, NIL)] in the insectary of the University of British Columbia (UBC).
(§1) Initial screening for feeding deterrent effects was conducted at 50 μg/cm^2 in feeding deterrent bioassays.
Larvae were given the choice of feeding on two leaf disks, one treated with 10 μL of a solution of the test substance painted on each side and the other treated with a carrier solvent alone. The number of larvae was 25 per treatment.
Feeding deterrence data (percent) for initial screening concentration were analyzed by analysis of variance (ANOVA) after arcsin transformation using statistics software (Statistix 7. Analytical Software, Statistix 7 for Windows 95, 98, NT, 2000. Analytical Software, Tallahassee).

[2] = test system: third instar T. ni larvae; assay: whole plant or invertebrate; details: contact toxicity to larvae; negative or zero values replaced by 0.1 for the index (footnote b)
Experimental: as §1
Mortality was determined 24 h after spraying larvae directly with test solutions. Third instar T. ni larvae were sprayed in 90 mm×15 mm Petri dishes (Falcon) lined with Fisher Scientific filter paper (90 mm diameter). Small plastic hand spraying bottles (50 mL capacity) were used. Larvae were then transferred to Petri dishes (90 mm×15 mm) with a small piece of artificial diet. Each Petri dish contained 10 larvae. Three replicates, each consisting of 10 larvae, were used per treatment.

T. ni neonates = assay: Greenhouse test on cabbage plants with T. ni neonates; format: in vivo, Trichoplusia ni; details: for mean larval recovery / weight reduction: 6 days
Experimental: […] Cabbage plants had 3-5 leaves. Each plant was sprayed (˜1 ml/leaf) and dried before the introduction of insects. There were 3 replicates of 5 plants for each treatment. Approximately nine T. ni neonates (<24 h old) were transferred on each plant. They were weighed after 6 days of feeding on the treatments. Numbers of larvae recovered from each treatment were also recorded. […] The mean larval recovery was not affected at the lowest concentration (0.0002%).

Row | Structure (SMILES) | FDI (%) mean (SE) (Trichoplusia ni larva; 45 ug/cm^2) | FDI (%) mean (SE) (Trichoplusia ni larva; 45 ug/cm^2, listed as 3c{3,6}) | DC50 (Trichoplusia ni larva; 3rd and 4th instar larvae, 83% methanol, linear regression 9 to 45 μg/cm^2) | pest or weed control at 0.25 % (T. ni moths) | pest or weed control at 50 µg/cm2, 50 µg/cm2 ([1]; Trichoplusia, foliar, Table 8, 50 μg/cm^2, read-out: F.D (%) Mean ± SE N = 25) | pest or weed control at 50 µg/cm2 ([1]; Trichoplusia, foliar, feeding deterrence (FD), Table 12, non-toxic feeding deterrents, read-out: % deterrence) | DC50 ([1]; feeding deterrence DC50, unit not given in Table 12) | % mortality [2] | mean larval recovery (T. ni neonates; 0.0002% spray) | weight of the larvae (T. ni neonates; 0.0002% spray, 6 days feeding on cabbage plants) | mean larval recovery (T. ni neonates; 0.0005% spray) | weight reduction (T. ni neonates; 0.0005% spray) | mean larval recovery (T. ni neonates; 0.001% spray) | weight reduction (T. ni neonates; 0.001% spray) | growth reduction (T. ni neonates; 10 ppm, highest concentration) | FDI (%) mean (SE) (Trichoplusia ni larva; 4.9 ug/cm^2 in vehicle, fifth instar larvae)
1 | C=CCOc1ccc(OCCC)cc1 [3c{3, 6}, 1-allyloxy-4-propoxybenzene] | 100 (0) b % | 100±0% | 27 μg/cm^2 | < 30% | 100% | 100% | 0.5 μg/cm^2 | −11 ^b % | not affected | not affected | 66.7% | 33.3% | 52% | 48% | ~50% | –
2 | C/C=C(\C)C(=O)O[C@H]1C[C@@H](OC(C)=O)[C@@]2(C(=O)OC)CO[C@H]3[C@@H](O)[C@@](C)([C@]45O[C@@]4(C)[C@H]4C[C@@H]5O[C@@H]5OC=C[C@@]54O)[C@H]4[C@]1(CO[C@]4(O)C(=O)OC)[C@@H]32 [azadirachtin, reference compound] | – | – | – | – | – | – | – | – | – | – | – | – | – | – | – | 43 (20) a %
